The record followed here is article PMC4393269, “Carvacrol Codrugs: A New Approach in the Antimicrobial Plan” (PLoS ONE, 2015).

In general, MIC refers to the lowest concentration that inhibits growth of the organism. One may read the MBC as the lowest tested concentration that kills the bacteria rather than only halting them. In general, MFC refers to the smallest concentration meeting the test's criterion for killing the fungus.

Structures are written as SMILES. In brackets after ≈: the same amount, converted by molar mass. Counter-ions that a name gives are not always drawn. Bounds are passed on as bounds.

Data set [1] relates to E. coli ATCC 8739. Nature of the data set: Broth microdilution MIC/MBC on planktonic cells. The class given is cell-based. Conditions: Escherichia coli, ATCC8739; for MIC: E. coli ATCC 8739, 24 h at 37°C, read-out: MIC; for MBC: E. coli ATCC 8739, read-out: MBC. The protocol: (§1) Two Gram-positive (S. aureus ATCC 29213 and S. epidermidis ATCC 35984) and two Gram-negative (E. coli ATCC 8739 and P. aeruginosa ATCC 9027) strains, and one fungal strain (C. albicans ATCC 10231) were used for the detection of antibacterial activity of carvacrol, NAC, Ac-Cys(Allyl)-OH, and carvacrol codrugs 1–10. All tested compounds were dissolved in 20% DMSO to prepare the stock solution (100 mg/mL). The final concentration of DMSO in each well appeared to be not toxic for all studied microorganisms, as confirmed by the solvent control test included in the study.
(§2) The effects of carvacrol codrugs 1–10 and reference compounds on planktonic cells were evaluated by Minimum Inhibitory Concentration (MIC) and Minimum Bactericidal Concentration (MBC) determination using the broth microdilution method according to EUCAST guidelines. Bacterial suspensions, grown in Mueller–Hinton Broth (MHB) at logarithmic phase, were incubated on microtiter plates at a concentration of 5 x 10^5 CFU/mL, with several dilutions (0.07–40 mg/mL) for 24 h at 37°C. The MIC was defined as the lowest concentration of substances giving a complete inhibition of visible growth in comparison with a control well, and the MBC was determined as the lowest concentration at which no bacterial growth occurred on Mueller–Hinton Agar plates.
(§3) Data were obtained from at least three independent experiments performed in duplicate. The susceptibility of the bacterial strains against ciprofloxacin was used as an internal standard during MIC determinations.
Background: In broth dilution the organism is exposed to a series of concentrations in liquid medium.

The test system of data set [2] is P. aeruginosa ATCC 9027. As to the kind of experiment: Broth microdilution MIC/MBC on planktonic cells. The class given is cell-based. Conditions: Pseudomonas aeruginosa, ATCC9027; for MIC: P. aeruginosa ATCC 9027, 24 h at 37°C, read-out: MIC; for MBC: P. aeruginosa ATCC 9027, read-out: MBC. As to the method:
as §1, §2, §3

In data set [3] the test system is S. aureus ATCC 29213. Nature of the data set: Broth microdilution MIC/MBC on planktonic cells. The class given is cell-based. Conditions: Staphylococcus aureus, ATCC29213; for MIC: S. aureus ATCC 29213, 24 h at 37°C, read-out: MIC; for MBC: S. aureus ATCC 29213, read-out: MBC. The protocol:
as §1, §2, §3

Data set [4] has as its system S. epidermidis ATCC 35984. As to the kind of experiment: Broth microdilution MIC/MBC on planktonic cells. Conditions: Staphylococcus epidermidis, ATCC35984; for MIC: S. epidermidis ATCC 35984, 24 h at 37°C, read-out: MIC; for MBC: S. epidermidis ATCC 35984, read-out: MBC. It is filed as cell-based. The protocol:
as §1, §2, §3

For data set [5], the system named is C. albicans ATCC 10231. Nature of the data set: Broth microdilution MIC/MFC. The class given is cell-based. Conditions: Candida albicans, ATCC10231; for MIC: C. albicans ATCC 10231, 24–48 h at 37°C, read-out: MIC; for MFC: C. albicans ATCC 10231, read-out: MFC. The protocol:
as §1
The MIC detection of C. albicans ATCC 10231 was performed using the broth microdilution method according to EUCAST guidelines in RPMI 1640 plus 2% glucose with a final inoculum of 1–5 x 10^5 CFU/mL for 24–48 h at 37°C. The Minimum Fungicidal Concentration (MFC) was determined as the lowest concentration of substances at which no fungal growth occurred on Sabouraud agar plates.
as §3

Data set [6] relates to Gram positive and Gram negative tested bacteria. Nature of the data set: Broth microdilution MIC/MBC, range over the bacterial panel. The class given is cell-based. The protocol: as §1
as §2, with “plates. […]” for “plates.”

Data set [7] relates to C. albicans ATCC 10231. As to the kind of experiment: Antibiofilm assay on established biofilm (BIC/BEC). The class given is cell-based. As to the method: (§4) The efficacy on established biofilm was evaluated by determining Biofilm Inhibitory Concentration (BIC) and Biofilm Eradication Concentration (BEC) according to the method described by Johnson et al. with some modifications. Bacterial suspensions, grown in Tryptic soy broth supplemented with 0.5% (v/v) glucose at logarithmic phase, as well as C. albicans grown in RPMI 1640 plus 2% glucose, were incubated on flat-bottomed microtiter plates at a concentration of 5 x 10^5 CFU/mL. After 24 h of incubation at 37°C, the planktonic cells were gently removed and wells were washed with sterile phosphate-buffered saline solution (PBS) pH 7.3 and filled with carvacrol, carvacrol codrug 4, Ac-Cys(Allyl)-OH with dilutions ranging from the MIC values to a maximum concentration of 50 mg/mL. The OD600 was measured at time 0 and after incubation for 24 h at 37°C. The BIC values were determined as the lowest concentrations where no growth occurred in the supernatant fluid, confirmed by no increase in optical density compared with the initial reading. The BEC values were determined as the lowest concentrations at which no bacterial growth occurred on Tryptic soy agar for bacteria and on Sabouraud agar for C. albicans. Data were obtained from at least three independent experiments performed in duplicate.

Data set [8] concerns E. coli ATCC 8739. Nature of the data set: Antibiofilm assay on established biofilm (BIC/BEC). It is filed as cell-based. As to the method:
as §4

Data set [9] concerns P. aeruginosa ATCC 9027. As to the kind of experiment: Antibiofilm assay on established biofilm (BIC/BEC). The class given is cell-based. As to the method: as §4
Data set [10] has as its system S. aureus ATCC 29213. Nature of the data set: Antibiofilm assay on established biofilm (BIC/BEC). Conditions: S. aureus ATCC 29213 established biofilm. The class given is cell-based. The protocol: as §4
For data set [11], the system named is S. epidermidis ATCC 35984. As to the kind of experiment: Antibiofilm assay on established biofilm (BIC/BEC). The class given is cell-based. As to the method: as §4
A further data set can be described thus: Hemolytic activity. It is filed as cell-based, human. Conditions: human, human red blood cells (h-RBC), 4% suspension, pH 7.3; 4% h-RBC in PBS, 1 h at 37°C, at the compound's MIC values. As to the method:
(§5) Experimental protocols to study hemolysis on human red cells were approved by Ethics Committee of the University “G. d’Annunzio” Chieti-Pescara. Human red cells were from two volunteers, who signed the informed consent for this study.
(§6) Hemolytic activity of carvacrol codrugs 1–10 was tested against human red blood cells (h-RBC). Fresh human blood, collected with EDTA, was centrifuged at 3000 rpm for 5 min then washed three times with PBS pH 7.3. Red blood cells were diluted to 4% in PBS and incubated with different codrugs concentrations ranging from 25 to 0.05 mg/mL. After 1 h of incubation at 37°C, the suspensions were sedimented by centrifugation and the release of hemoglobin was determined by absorbance measurement at 405 nm and compared with a 0% hemolysis control (PBS) and a 100% hemolysis control (PBS with 1% v/v Triton X-100). The percentage of hemolysis was calculated using the following equation: Hemolysis (%) = [(OD405sample - OD4050% lysis control)/(OD405100% lysis control - OD4050% lysis contro)] X 100

In data set [12] the test system is human red blood cells (h-RBC). As to the kind of experiment: Hemolytic activity. Conditions: 4% h-RBC, 1 h at 37°C. It is filed as cell-based. The protocol: as §5, §6

Take `C=CCSC[C@H](NC(C)=O)C(=O)O` [Ac-Cys(Allyl)-OH, N-Ac-Cys(Allyl)-OH]: the MIC in the data set on E. coli ATCC 8739 [1] turned out to be 2500 µg/mL (≈ 12.3 mM); in the data set with P. aeruginosa ATCC 9027 [2] it was 10000 µg/mL (≈ 49.2 mM); with S. aureus ATCC 29213 [3], 5000 µg/mL (≈ 24.6 mM); in data set [4], 5000 µg/mL (≈ 24.6 mM); in the data set on C. albicans ATCC 10231 [5] it was 2500 µg/mL (≈ 12.3 mM). Further, the MBC stood at 2500 µg/mL (≈ 12.3 mM) in the data set with E. coli ATCC 8739 [1], 10000 µg/mL (≈ 49.2 mM) in the data set with P. aeruginosa ATCC 9027 [2], 5000 µg/mL (≈ 24.6 mM) in the data set with S. aureus ATCC 29213 [3] and 5000 µg/mL (≈ 24.6 mM) in data set [4]. Also, the MFC in the data set with C. albicans ATCC 10231 [5] is 2500 µg/mL (≈ 12.3 mM). Further, in [6] (bacterial strains of Table 1), the “MIC values (range over strains)” value lay within 2500 to 10000 µg/mL. In addition, the “BEC as multiple of MIC” value is 2MIC with C. albicans ATCC 10231 [7] (C. albicans ATCC 10231), 8MIC with E. coli ATCC 8739 [8] (E. coli ATCC 8739), 2MIC in the data set with P. aeruginosa ATCC 9027 [9] (P. aeruginosa ATCC 9027) and 4MIC in data set [11] (S. epidermidis ATCC 35984). In addition, the “BIC as multiple of MIC” value is 2MIC in the data set with C. albicans ATCC 10231 [7] (C. albicans ATCC 10231), 2MIC in the data set on E. coli ATCC 8739 [8] (E. coli ATCC 8739) and 4MIC in data set [11] (S. epidermidis ATCC 35984). Further, the BEC was 5 mg/mL with C. albicans ATCC 10231 [7] (C. albicans ATCC 10231 established biofilm); 20 mg/mL in the data set with E. coli ATCC 8739 [8] (E. coli ATCC 8739 established biofilm); 20 mg/mL in the data set on P. aeruginosa ATCC 9027 [9] (P. aeruginosa ATCC 9027 established biofilm); 20 mg/mL in the data set with S. aureus ATCC 29213 [10]; 20 mg/mL in [11] (S. epidermidis ATCC 35984 established biofilm). For the same compound, the BIC in the data set on C. albicans ATCC 10231 [7] (C. albicans ATCC 10231 established biofilm, 24 h) turned out to be 5 mg/mL; with E. coli ATCC 8739 [8] (E. coli ATCC 8739 established biofilm, 24 h), 5 mg/mL; in the data set with P. aeruginosa ATCC 9027 [9] (P. aeruginosa ATCC 9027 established biofilm, 24 h), 10 mg/mL; with S. aureus ATCC 29213 [10] (24 h), 10 mg/mL; in data set [11] (S. epidermidis ATCC 35984 established biofilm, 24 h), 20 mg/mL.

`CC(=O)N[C@@H](CS)C(=O)O` [NAC, N-Acetyl-cysteine, reference compound]: the MIC in the data set with E. coli ATCC 8739 [1] came to 5000 µg/mL (≈ 30.6 mM); with P. aeruginosa ATCC 9027 [2], 5000 µg/mL (≈ 30.6 mM); in the data set with S. aureus ATCC 29213 [3], 5000 µg/mL (≈ 30.6 mM); in [4], 5000 µg/mL (≈ 30.6 mM); in the data set with C. albicans ATCC 10231 [5] it was 20000 µg/mL (≈ 123 mM). For the same compound, the minimum bactericidal concentration (MBC) with E. coli ATCC 8739 [1] is 5000 µg/mL (≈ 30.6 mM); with P. aeruginosa ATCC 9027 [2] it was 5000 µg/mL (≈ 30.6 mM); in the data set with S. aureus ATCC 29213 [3], 20000 µg/mL (≈ 123 mM); in [4], 5000 µg/mL (≈ 30.6 mM). In addition, the MFC in the data set on C. albicans ATCC 10231 [5] is 80000 µg/mL (≈ 490 mM). In data set [6] (Gram positive and Gram negative tested bacteria), the “MIC and MBC values (range over strains)” value fell in the range of 5000 to 20000 µg/mL.

Take `Cc1ccc(C(C)C)cc1OC(=O)[C@@H]1CSCN1` [codrug 8, TFA·TCA-CAR]: the minimum inhibitory concentration (MIC) was 5000 µg/mL in the data set with E. coli ATCC 8739 [1]; 10000 µg/mL in the data set on P. aeruginosa ATCC 9027 [2]; 5000 µg/mL in the data set on S. aureus ATCC 29213 [3]; 2500 µg/mL in [4]; 600 µg/mL in the data set on C. albicans ATCC 10231 [5]. For the same compound, the minimum bactericidal concentration (MBC) stood at 5000 µg/mL with E. coli ATCC 8739 [1], 10000 µg/mL in the data set with P. aeruginosa ATCC 9027 [2], 10000 µg/mL in the data set with S. aureus ATCC 29213 [3] and 5000 µg/mL in [4]. Also, the minimum fungicidal concentration (MFC) in the data set on C. albicans ATCC 10231 [5] came out at 600 µg/mL. The compound also registered a hemolysis at 1 h in “Hemolytic activity” of more than 50%. The “concentration at which hemolytic activity is over 50%” value in data set [12] came out at 3000 µg/mL.

As to `C#CCSC[C@H](NC(C)=O)C(=O)Oc1cc(C(C)C)ccc1C` [codrug 9, N-Ac-Cys(Propargyl)-CAR], the minimal inhibitory concentration (MIC) stood at 10000 µg/mL (≈ 30 mM) in the data set on E. coli ATCC 8739 [1]; 10000 µg/mL (≈ 30 mM) with P. aeruginosa ATCC 9027 [2]; 10000 µg/mL (≈ 30 mM) with S. aureus ATCC 29213 [3]; 5000 µg/mL (≈ 15 mM) in [4]; 1250 µg/mL (≈ 3.75 mM) with C. albicans ATCC 10231 [5]. Further, the MBC (in the data set with E. coli ATCC 8739 [1]; in the data set with P. aeruginosa ATCC 9027 [2]; in the data set on S. aureus ATCC 29213 [3]; in data set [4]) was 10000 µg/mL (≈ 30 mM) in each case. Further, in the data set with C. albicans ATCC 10231 [5], the minimum fungicidal concentration (MFC) was 2500 µg/mL (≈ 7.5 mM). In the data set “Hemolytic activity”, this compound had a hemolysis at 1 h of more than 50%. The “concentration at which hemolytic activity is over 50%” value in [12] is 10000 µg/mL.
